Data published in ChEMBL document CHEMBL1151111, “Antitumor agents, 99. Synthetic ring C aromatized podophyllotoxin analogues as potential inhibitors of human DNA topoisomerase II” (1988).
Values after ≈ are worked out from the molar mass of the structure shown. Active and inactive are the calls of the source. The calls are words filed in the database; no cut-off is given here.

How the values were obtained:
Homo sapiens [1] = organism: Homo sapiens; test: Inhibition of human DNA topoisomerase 2 at 200 uM
KB = test: Cytotoxicity against human KB cells; assay type: functional; details: read-out: ED50 (the source's name)
Homo sapiens [2] = organism: Homo sapiens; test: Inhibition of human DNA topoisomerase 2 at 400 uM
P388 = test: In vivo cytotoxicity against mouse P388 cells at 50 mg/kg/day relative to control; assay type: functional

With `CCOc1c2c(c(-c3cc(OC)c(OC)c(OC)c3)c3cc4c(cc13)OCO4)C(=O)OC2` [DEHYDROPODOPHYLLOTOXIN ETHYL ETHER] the inhibition (Homo sapiens [1]) was “inactive” and the EC50 (KB) was 4 µg/mL (≈ 9.12 µM).
Compound `COc1cc([C@@H]2c3cc4c(cc3[C@@H](O)[C@H]3COC(=O)[C@H]23)OCO4)cc(OC)c1O` [4'-DEMETHYLEPIPODOPHYLLOTOXIN] has an inhibition (Homo sapiens [2]) of 50% and an EC50 (KB) of 0.1 µg/mL (≈ 0.25 µM).
With `COc1cc(-c2c3c(c(O)c4cc5c(cc24)OCO5)COC3=O)cc(OC)c1O` the inhibition (Homo sapiens [1]) was “inactive” and the EC50 (KB) was 2.2 µg/mL (≈ 5.55 µM).
In the case of `COc1cc(-c2c3c(c(O)c4cc5c(cc24)OCO5)COC3=O)cc(OC)c1OC` [DEHYDROPODOPHYLLOTOXIN], the inhibition (Homo sapiens [1]) is reported as “inactive” and the EC50 (KB) is reported as 4 µg/mL (≈ 9.75 µM).
Work on `CCO[C@@H]1c2cc3c(cc2[C@@H](c2cc(OC)c(O)c(OC)c2)[C@H]2C(=O)OC[C@@H]21)OCO3` yielded an inhibition (Homo sapiens [2]) of 25% and an EC50 (KB) of 1.1 µg/mL (≈ 2.57 µM).
With `CCOc1c2c(c(-c3cc(OC)c(O)c(OC)c3)c3cc4c(cc13)OCO4)C(=O)OC2` the inhibition (Homo sapiens [1]) was “inactive” and the EC50 (KB) was 4 µg/mL (≈ 9.42 µM).
Work on `COc1cc([C@@H]2c3cc4c(cc3[C@@H](O[C@@H]3O[C@@H]5CO[C@@H](C)O[C@H]5[C@H](O)[C@H]3O)[C@H]3COC(=O)[C@H]23)OCO4)cc(OC)c1O` [ETOPOSIDE] yielded an inhibition (Homo sapiens [2]) of 85%, an inhibition (Homo sapiens [1]) of 80% and an EC50 (KB) of 0.1 µg/mL (≈ 0.17 µM).
With `COc1cc2c(OC)c3c(c(-c4ccc5c(c4)OCO5)c2cc1OC)C(=O)OC3` [JUSTICIDIN A] the EC50 (KB) was under 1 µg/mL and the T/C (P388) was 150%.
`COc1cc2c(O)c3c(c(-c4ccc5c(c4)OCO5)c2cc1OC)C(=O)OC3` [DIPHYLLIN] gave an EC50 (KB) of under 1 µg/mL and a T/C (P388) of 150%.
For `CCCOc1c2c(c(-c3cc(OC)c(OC)c(OC)c3)c3cc4c(cc13)OCO4)C(=O)OC2` [DEHYDROPODOPHYLLOTOXIN PROPYL ETHER], the inhibition (Homo sapiens [1]) was “inactive” and the EC50 (KB) was 4 µg/mL (≈ 8.84 µM).
